The values that follow come from article PMC12447755, “β-Lactamase cleavable antimicrobial peptide–drug conjugates” (Chemical Science, 2025).

For data set [1], the system named is P. aeruginosa strain PAO1. The following applies: for MIC PAO1: PAO1, 16 h.
Data set [2] has as its system Pseudomonas aeruginosa strain PAO1. The data set can be described thus: Initial susceptibility testing at a fixed concentration. It counts as cell-based. Also on record: key: Tick (✓) represents OD600 comparable to no-growth control; cross (✗) represents OD600 comparable to growth control without any peptide. The conditions noted are these: 256 μg mL−1 of peptide, overnight incubation, OD600 compared with growth and no-growth controls.

Data set [3] relates to P. aeruginosa.
Data set [4] deals with P. aeruginosa strain PA14. The conditions noted are these: for MIC PA14: PA14, 16 h; for MIC for PA14: PA14, 18 h.
Data set [5] concerns Methicillin-resistant Staphylococcus aureus MRSA15. The conditions noted are these: Table 4; broth microdilution in MH medium, 37 °C, 16 h. Background: Dilution methods test growth across graded concentrations, often in twofold steps.
In data set [6] the test system is Burkholderia thailandensis E264. The following applies: Table 4; broth microdilution in MH medium, 37 °C, 16 h.
The test system of data set [7] is Serratia marcescens ATCC39006. The following applies: ATCC39006, 16 h.
For data set [8] the following is noted: human serum 100 µL in 400 µL MES buffer (pH 6, 50 mM), 37 °C, protein precipitated with 1:1 DMSO:ethanol, HPLC at 220 nm, caffeine standard; Fig. 5b, values not given.
The test system of data set [9] is Klebsiella pneumoniae CK1. The following applies: CK1, 16 h.
The subject of data set [10] is Enterococcus faecalis ATCC29212. The conditions noted are these: ATCC29212, 16 h.
The subject of data set [11] is Escherichia coli DH5a. The following applies: 16 h.
Data set [12] can be described thus: Background stability in PBS buffer. It counts as physicochemical. The conditions noted are these: PBS buffer pH 7.4 (50 mM), 37 °C, HPLC at 280 nm, Fig. 5a; values not given.
Data set [13] relates to PAO1 strain containing plasmid pUCP20, which encodes a β-lactamase. The data set is described as follows: MIC determination using broth microdilution method. It counts as cell-based, Pseudomonas aeruginosa.
Data set [14] relates to P. aeruginosa. The data set is described as follows: Drug synergism assay. It counts as cell-based, Pseudomonas aeruginosa. The conditions noted are these: P2a combined with ciprofloxacin, checkerboard in MH medium, 37 °C, 16 h; synergy threshold 0.5; strain not stated. As for the experimental part: measured and 15 µL of thiazolyl blue tetrazolium bromide (MTT; 1 mg/mL stock solution in water; Acros) was added to each well of the plate. The MIC was defined as the lowest concentration of the compound with a colourless well indicating no bacterial growth and the results cross-checked with OD600 reading. Each sample was run in triplicate on the same plate. Polymyxin B or ciprofloxacin or both were used as positive controls to ensure comparability of results across different experiments.
Bacterial culture was quantified by measuring the OD600, medium exchanged to MH-medium and culture diluted to OD600 of 0.022 in MH-medium. Stock solution of compound A was diluted to twice the starting concentration in MH medium. […] The next day, OD600 of the microtiter plate was measured and 15 µL of thiazolyl blue tetrazolium bromide (MTT; 1 mg/mL stock solution in water) was added to each well of the plate to cross-check the OD600 readings. […]
150 µL of the solution was added to 96-well plate (3 wells per bacterium) as well as 150 µL of MH medium as a negative control (further 3 wells per bacterium). The media were inoculated with 4 µL of the diluted bacterial solution and incubated in a plate reader at 37◦C for 16 h and absorption at 482 nm (Abs482) and 600 nm (OD600) was continuously measured throughout the incubation. […]

In brackets after ≈: the same amount, converted by molar mass. Where two headings read alike, the source gives them in different places. Where a SMILES comes first, the peptide text is derived from it. Where no end group is shown, it is not given here.

As usually defined, the MIC is the lowest concentration that inhibits growth of the organism. Take `C[C@@H]1NC(=O)[C@H](Cc2c[nH]c3ccccc23)NC(=O)[C@H](CCCCN)NC(=O)[C@@H](NC(=O)[C@@H](N)Cc2ccccc2)CSCCc2cc(nc(NCCCc3ccccc3)n2)CCSC[C@@H](C(=O)N[C@@H](CCCCN)C(=O)N[C@@H](CCCCN)C(N)=O)NC(=O)[C@H](Cc2c[nH]c3ccccc23)NC(=O)[C@H](CCCCN)NC(=O)[C@H](Cc2ccccc2)NC1=O` [P2-1] (HELM PEPTIDE1{F.C.K.W.A.F.K.W.C.K.K.[am]}|CHEM1{[c1ccc(CCCNc2nc(CC[*:1])cc(CC[*:2])n2)cc1]}$PEPTIDE1,CHEM1,2:R3-1:R1|PEPTIDE1,CHEM1,9:R3-1:R2$$$V2.0): the “MIC PAO1” value in data set [1] turned out to be 16 µg/mL (≈ 9.2 µM). Further, the “Inh (inhibition)” value in [2] is on record as “✓”. Moreover, in data set [3], the “MIC of peptide-staple combinations (heat map)” value is on record as “best activity”. Besides, in data set [3] (18 h), the MIC was 8 to 16 µg/mL. In addition, the “MIC PA14” value in [4] is 16 µg/mL (≈ 9.2 µM).
Regarding `CC(=O)OCC1=C(C(=O)O)N2C(=O)[C@@H](NC(=O)CCCNc3nc4cc(n3)CCSC[C@H](NC(=O)[C@@H](N)Cc3ccccc3)C(=O)N[C@@H](CCCCN)C(=O)N[C@@H](Cc3c[nH]c5ccccc35)C(=O)N[C@@H](C)C(=O)N[C@@H](Cc3ccccc3)C(=O)N[C@@H](CCCCN)C(=O)N[C@@H](Cc3c[nH]c5ccccc35)C(=O)N[C@H](C(=O)N[C@@H](CCCCN)C(=O)N[C@@H](CCCCN)C(N)=O)CSCC4)[C@H]2SC1` [P2-8], the MIC is 64 µg/mL (≈ 32.6 µM) in [5]; at least 64 µg/mL in data set [6]; at least 64 µg/mL in data set [7]; at least 64 µg/mL in data set [9]; 2 µg/mL (≈ 1.02 µM) in [10]; 32 µg/mL (≈ 16.3 µM) in data set [11]. The “MIC for PAO1” value in data set [1] (PAO1, 18 h) is above 33 µM. For the same compound, the serum stability entry in [8] is reported as “improved stability over unstapled P2a”. Further, the “MIC for PA14” value in data set [4] was above 33 µM.
Take `C[C@@H]1NC(=O)[C@H](Cc2c[nH]c3ccccc23)NC(=O)[C@H](CCCCN)NC(=O)[C@@H](NC(=O)[C@@H](N)Cc2ccccc2)CSCCc2cc(nc(NCCCC(=O)N[C@@H]3C(=O)N4C(C(=O)O)C(COC(=O)N5CCN(c6cc7c(cc6F)c(=O)c(C(=O)O)cn7C6CC6)CC5)=CS[C@H]34)n2)CCSC[C@@H](C(=O)N[C@@H](CCCCN)C(=O)N[C@@H](CCCCN)C(N)=O)NC(=O)[C@H](Cc2c[nH]c3ccccc23)NC(=O)[C@H](CCCCN)NC(=O)[C@H](Cc2ccccc2)NC1=O` (stereo partly drawn) [P2-10]: the MIC is 16 µg/mL (≈ 7.03 µM) in [7], at least 64 µg/mL in data set [9], 16 µg/mL (≈ 7.03 µM) in data set [10] and 1 µg/mL (≈ 0.439 µM) in data set [11]. In addition, the “MIC for PAO1” value in data set [1] (PAO1, 18 h) stood at 7.0 µM. Further, the “PAO1 MIC” value in [1] (Table S3, initial MIC values) is on record as 16 µg/mL. Further, in data set [1] (medium supplemented with 1 nM recombinant β-lactamase), the “MIC for PAO1 after adding β-lactamase” value came out at 2 µg/mL. In data set [8], the serum stability result was “improved stability over unstapled P2a”. The “background hydrolysis rate mediated by buffer only” value in data set [12] was “significantly lower than when β-lactamase was present”. Also, the “reduction in MIC in PAO1 with plasmid pUCP20 versus PAO1” value in [13] (Fig. 4 and Table 3) is on record as “one half”. Further, in data set [4], the “MIC for PA14” value was found to be 7.0 µM. In addition, in data set [4] (Table S3, initial MIC values), the “PA14 MIC” value is 16 µg/mL.
As for `C[C@H](NC(=O)[C@H](Cc1c[nH]c2ccccc12)NC(=O)[C@H](CCCCN)NC(=O)[C@H](CS)NC(=O)[C@@H](N)Cc1ccccc1)C(=O)N[C@@H](Cc1ccccc1)C(=O)N[C@@H](CCCCN)C(=O)N[C@@H](Cc1c[nH]c2ccccc12)C(=O)N[C@@H](CS)C(=O)N[C@@H](CCCCN)C(=O)N[C@@H](CCCCN)C(N)=O` [P2] (H-FCKWAFKWCKK-NH2), the “MIC PAO1” value in data set [1] stood at 32 µg/mL (≈ 21.7 µM). The “Inh (inhibition)” value in data set [2] is “✗”. Further, the “MIC PA14” value in data set [4] turned out to be 32 µg/mL (≈ 21.7 µM).
Consider `CC(C)C[C@H](NC(=O)[C@H](Cc1c[nH]cn1)NC(=O)[C@H](CCCCN)NC(=O)[C@H](CS)NC(=O)[C@H](Cc1ccc(O)cc1)NC(=O)[C@H](CC(N)=O)NC(=O)[C@H](CCC(N)=O)NC(=O)[C@@H](NC(=O)[C@H](Cc1c[nH]c2ccccc12)NC(=O)[C@@H](N)CCCCN)C(C)C)C(=O)NCC(=O)N[C@@H](CCCNC(=N)N)C(=O)N[C@@H](CCCCN)C(=O)N[C@@H](CS)C(=O)N[C@@H](Cc1c[nH]cn1)C(=O)N[C@H](C(=O)N[C@@H](CC(C)C)C(=O)N[C@@H](CCCCN)C(=O)N[C@H](C(N)=O)[C@@H](C)O)[C@@H](C)O` [P6] (H-KWVQNYCKHLGRKCHTLKT-NH2), for which, in [2], the “Inh (inhibition)” value is “✗”.
`CC(C)C[C@@H]1NC(=O)[C@H](CCCNC(=N)N)NC(=O)[C@H](Cc2c[nH]cn2)NC(=O)[C@@H](NC(=O)[C@H](CC(C)C)NC(=O)[C@H](CCCCN)NC(=O)[C@H](CCCNC(=N)N)NC(=O)[C@H](Cc2ccccc2)NC(=O)[C@H](CC(C)C)NC(=O)[C@@H](N)CC(N)=O)CSCCc2cc(nc(NCCCc3ccccc3)n2)CCSC[C@@H](C(=O)N[C@@H](Cc2ccccc2)C(=O)NCC(=O)N[C@@H](Cc2ccc(O)cc2)C(=O)N[C@H](C(=O)N[C@@H](CC(C)C)C(=O)N[C@@H](CCCNC(=N)N)C(N)=O)[C@@H](C)O)NC(=O)[C@H](CCCNC(=N)N)NC(=O)[C@H](CCCNC(=N)N)NC(=O)[C@H](Cc2ccccc2)NC1=O` [P7-1] (HELM PEPTIDE1{N.L.F.R.K.L.C.H.R.L.F.R.R.C.F.G.Y.T.L.R.[am]}|CHEM1{[c1ccc(CCCNc2nc(CC[*:1])cc(CC[*:2])n2)cc1]}$PEPTIDE1,CHEM1,7:R3-1:R1|PEPTIDE1,CHEM1,14:R3-1:R2$$$V2.0): the “Inh (inhibition)” value in data set [2] is “✗”.
Regarding “FAKWAFKWLKK-NH2 [P2a, reference compound]”, the MIC in data set [5] is 32 µg/mL; in data set [7], at least 64 µg/mL; in data set [10] it was at least 64 µg/mL; in data set [11], 4 µg/mL. In addition, the “fractional inhibitory concentration index” value in data set [14] turned out to be 0.75. In addition, the “PAO1 MIC” value in data set [1] (PAO1, 18 h) is reported as 11 µM; in [1] (Table S4, cephalosporin-based staple 8 at different positions) it was 16 µg/mL. In addition, in [13] (OD600 growth curve, triplicate, Fig. 4b), the “cell growth inhibition in strain with plasmid versus without” value is “no difference in cell growth inhibition”. In data set [2], the “Inh (inhibition)” value is “✗”. The “MIC PA14” value in data set [4] stood at 64 µg/mL. The “PA14 MIC” value in [4] (Table S3, initial MIC values) came out at 32 µg/mL; in data set [4] (Table S4), 22 µM.
“KWVQNYMKHLGRKAHTLKT-NH2 [P6a, reference compound]”: the “Inh (inhibition)” value in data set [2] is on record as “✓”.
Still for that read-out and setting: under “RFRRLRKKWRKRLKKI-NH2 [P4a, reference compound]” stands “✓”.
